Test system: 945468-187-T-J3-PDC spheroids with HUVEC/MSC, viability
Assay: Anticancer human tumor 945468-187-T-J3-PDC patient-derived rectal carcinoma cell line growth inhibition [PI3K]
Conditions: for IC50: curve of first compound; for viability, T/C: stronger effect = lower value
Procedure, shortened: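 Tumor cells were combined with HUVEC and MSCs into spheroids, then dosed with PI3K-inhibitor combinations over half-log ranges capped near clinical Cmax or 10 microM.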

[1] = second compound 0.00316 µM, first compound 0.0316 µM
[2] = second compound 0.00316 µM, first compound 0.1 µM
[3] = second compound 0.00316 µM, first compound 0.316 µM
[4] = second compound 0.00316 µM, first compound 1 µM
[5] = second compound 0.00316 µM, first compound 3.16 µM
[6] = second compound 0.00316 µM, first compound 10 µM
[7] = second compound 0.01 µM, first compound 0.0316 µM
[8] = second compound 0.01 µM, first compound 0.1 µM
[9] = second compound 0.01 µM, first compound 0.316 µM
[10] = second compound 0.01 µM, first compound 1 µM
[11] = second compound 0.01 µM, first compound 3.16 µM
[12] = second compound 0.01 µM, first compound 10 µM
[13] = second compound 0.0316 µM, first compound 0.0316 µM
[14] = second compound 0.0316 µM, first compound 0.1 µM
[15] = second compound 0.0316 µM, first compound 0.316 µM
[16] = second compound 0.0316 µM, first compound 1 µM
[17] = second compound 0.0316 µM, first compound 3.16 µM
[18] = second compound 0.0316 µM, first compound 10 µM
[19] = second compound 0.1 µM, first compound 0.0316 µM
[20] = second compound 0.1 µM, first compound 0.1 µM
[21] = second compound 0.1 µM, first compound 0.316 µM
[22] = second compound 0.1 µM, first compound 1 µM
[23] = second compound 0.1 µM, first compound 3.16 µM
[24] = second compound 0.1 µM, first compound 10 µM
[25] = second compound 0.316 µM, first compound 0.0316 µM
[26] = second compound 0.316 µM, first compound 0.1 µM
[27] = second compound 0.316 µM, first compound 0.316 µM
[28] = second compound 0.316 µM, first compound 1 µM
[29] = second compound 0.316 µM, first compound 3.16 µM
[30] = second compound 0.316 µM, first compound 10 µM
[31] = second compound 1 µM, first compound 0.0316 µM
[32] = second compound 1 µM, first compound 0.1 µM
[33] = second compound 1 µM, first compound 0.316 µM
[34] = second compound 1 µM, first compound 1 µM
[35] = second compound 1 µM, first compound 3.16 µM
[36] = second compound 1 µM, first compound 10 µM
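Note: spheroids exposed to agents for 7 days before viability read.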
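Throughout, for viability, T/C: 100% = DMSO vehicle control viability.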

Work on `CC1(C)CCC(CN2CCN(c3ccc(C(=O)NS(=O)(=O)c4ccc(NCC5CCOCC5)c([N+](=O)[O-])c4)c(Oc4cnc5[nH]ccc5c4)c3)CC2)=C(c2ccc(Cl)cc2)C1` + COc1c(OCCCN2CCOCC2)ccc2c3n(c(=NC(=O)c4cnc(N)nc4)nc12)CCN3 yielded an IC50 (second compound 0.00316 µM) of 6.06 µM, an IC50 (second compound 0.01 µM) of 6.08 µM and an IC50 (second compound 0.0316 µM) of 6.29 µM. It also gave an IC50 (second compound 0.1 µM) of 1.11 µM, an IC50 (second compound 0.316 µM) of less than 0.0316 µM and an IC50 (second compound 1 µM) of less than 0.0316 µM. The viability, T/C [1] was 93.4%, the viability, T/C [2] was 106% and the viability, T/C [3] was 117%. The viability, T/C [4] was 91.1%, the viability, T/C [5] was 116% and the viability, T/C [6] was 8%. For the same compound, the viability, T/C [7] was 103%, the viability, T/C [8] was 90.8% and the viability, T/C [9] was 93.1%. It also gave a viability, T/C [10] of 97.3%, a viability, T/C [11] of 119% and a viability, T/C [12] of 11.3%. For the same compound, the viability, T/C [13] was 107%, the viability, T/C [14] was 94% and the viability, T/C [15] was 114%. The viability, T/C [16] was 98.1%, the viability, T/C [17] was 106% and the viability, T/C [18] was 13.7%. For the same compound, the viability, T/C [19] was 54%, the viability, T/C [20] was 43.4% and the viability, T/C [21] was 50.4%. For the same compound, the viability, T/C [22] was 53%, the viability, T/C [23] was 48.5% and the viability, T/C [24] was 8.54%. It also gave a viability, T/C [25] of 22.1%, a viability, T/C [26] of 20.7% and a viability, T/C [27] of 18.1%. It also gave a viability, T/C [28] of 24.3%, a viability, T/C [29] of 25.7% and a viability, T/C [30] of 5.28%. For the same compound, the viability, T/C [31] was 16.7%, the viability, T/C [32] was 17.9% and the viability, T/C [33] was 17.8%. The viability, T/C [34] was 19.7%, the viability, T/C [35] was 17.7% and the viability, T/C [36] was 3.81%.

Work on `CCCS(=O)(=O)Nc1ccc(F)c(C(=O)c2c[nH]c3ncc(-c4ccc(Cl)cc4)cc23)c1F` + COc1c(OCCCN2CCOCC2)ccc2c3n(c(=NC(=O)c4cnc(N)nc4)nc12)CCN3 yielded an IC50 (second compound 0.00316 µM) greater than 10 µM, an IC50 (second compound 0.01 µM) greater than 10 µM and an IC50 (second compound 0.0316 µM) of 7.31 µM. It also gave an IC50 (second compound 0.1 µM) of less than 0.0316 µM, an IC50 (second compound 0.316 µM) of less than 0.0316 µM and an IC50 (second compound 1 µM) of less than 0.0316 µM. The viability, T/C [1] was 106%, the viability, T/C [2] was 81% and the viability, T/C [3] was 88.9%. For the same compound, the viability, T/C [4] was 77.7%, the viability, T/C [5] was 87.2% and the viability, T/C [6] was 52.3%. It also gave a viability, T/C [7] of 86.6%, a viability, T/C [8] of 77.3% and a viability, T/C [9] of 86.2%. It also gave a viability, T/C [10] of 87.7%, a viability, T/C [11] of 95.8% and a viability, T/C [12] of 74.2%. It also gave a viability, T/C [13] of 83.8%, a viability, T/C [14] of 89.4% and a viability, T/C [15] of 79.1%. For the same compound, the viability, T/C [16] was 89.6%, the viability, T/C [17] was 86.1% and the viability, T/C [18] was 36.7%. It also gave a viability, T/C [19] of 42.2%, a viability, T/C [20] of 48.9% and a viability, T/C [21] of 38.2%. It also gave a viability, T/C [22] of 43.6%, a viability, T/C [23] of 28.7% and a viability, T/C [24] of 8.36%. The viability, T/C [25] was 18.8%, the viability, T/C [26] was 20.2% and the viability, T/C [27] was 20.1%. It also gave a viability, T/C [28] of 22.2%, a viability, T/C [29] of 20.9% and a viability, T/C [30] of 7.04%. The viability, T/C [31] was 15.5%, the viability, T/C [32] was 16.1% and the viability, T/C [33] was 18.2%. For the same compound, the viability, T/C [34] was 18.5%, the viability, T/C [35] was 15.2% and the viability, T/C [36] was 6.57%.

Compound `CNC(=O)c1ccc(N2C(=S)N(c3ccc(C#N)c(C(F)(F)F)c3)C(=O)C2(C)C)cc1F` + COc1c(OCCCN2CCOCC2)ccc2c3n(c(=NC(=O)c4cnc(N)nc4)nc12)CCN3 has an IC50 (second compound 0.00316 µM) greater than 10 µM, an IC50 (second compound 0.01 µM) greater than 10 µM and an IC50 (second compound 0.0316 µM) greater than 10 µM. The IC50 (second compound 0.1 µM) was less than 0.0316 µM, the IC50 (second compound 0.316 µM) was less than 0.0316 µM and the IC50 (second compound 1 µM) was less than 0.0316 µM. For the same compound, the viability, T/C [1] was 102%, the viability, T/C [2] was 94.3% and the viability, T/C [3] was 98.5%. For the same compound, the viability, T/C [4] was 84.6%, the viability, T/C [5] was 98.2% and the viability, T/C [6] was 99.9%. The viability, T/C [7] was 98.9%, the viability, T/C [8] was 97.1% and the viability, T/C [9] was 90%. The viability, T/C [10] was 95.2%, the viability, T/C [11] was 100% and the viability, T/C [12] was 117%. It also gave a viability, T/C [13] of 101%, a viability, T/C [14] of 103% and a viability, T/C [15] of 96.7%. The viability, T/C [16] was 104%, the viability, T/C [17] was 111% and the viability, T/C [18] was 98%. For the same compound, the viability, T/C [19] was 44.1%, the viability, T/C [20] was 39.7% and the viability, T/C [21] was 46.2%. The viability, T/C [22] was 53.9%, the viability, T/C [23] was 64.6% and the viability, T/C [24] was 51.5%. For the same compound, the viability, T/C [25] was 25.1%, the viability, T/C [26] was 26.6% and the viability, T/C [27] was 22.8%. The viability, T/C [28] was 23.4%, the viability, T/C [29] was 28.4% and the viability, T/C [30] was 28.5%. The viability, T/C [31] was 17.5%, the viability, T/C [32] was 21.3% and the viability, T/C [33] was 14.4%. It also gave a viability, T/C [34] of 21.6%, a viability, T/C [35] of 17.8% and a viability, T/C [36] of 16.9%.

From PubChem BioAssay AID1963968 (Molecular Pharmacology Branch, DTP, NCI, 2024)
